Measured values taken from ChEMBL document CHEMBL1140520, “Synthesis and biological evaluation of substituted 6-alkynyl-4-anilinoquinazoline derivatives as potent EGFR inhibitors” (Bioorg Med Chem Lett, 2007).

These molecules were tested against Epidermal growth factor receptor (Homo sapiens, UniProt P00533).
Chain of Epidermal growth factor receptor (P00533 whole entry): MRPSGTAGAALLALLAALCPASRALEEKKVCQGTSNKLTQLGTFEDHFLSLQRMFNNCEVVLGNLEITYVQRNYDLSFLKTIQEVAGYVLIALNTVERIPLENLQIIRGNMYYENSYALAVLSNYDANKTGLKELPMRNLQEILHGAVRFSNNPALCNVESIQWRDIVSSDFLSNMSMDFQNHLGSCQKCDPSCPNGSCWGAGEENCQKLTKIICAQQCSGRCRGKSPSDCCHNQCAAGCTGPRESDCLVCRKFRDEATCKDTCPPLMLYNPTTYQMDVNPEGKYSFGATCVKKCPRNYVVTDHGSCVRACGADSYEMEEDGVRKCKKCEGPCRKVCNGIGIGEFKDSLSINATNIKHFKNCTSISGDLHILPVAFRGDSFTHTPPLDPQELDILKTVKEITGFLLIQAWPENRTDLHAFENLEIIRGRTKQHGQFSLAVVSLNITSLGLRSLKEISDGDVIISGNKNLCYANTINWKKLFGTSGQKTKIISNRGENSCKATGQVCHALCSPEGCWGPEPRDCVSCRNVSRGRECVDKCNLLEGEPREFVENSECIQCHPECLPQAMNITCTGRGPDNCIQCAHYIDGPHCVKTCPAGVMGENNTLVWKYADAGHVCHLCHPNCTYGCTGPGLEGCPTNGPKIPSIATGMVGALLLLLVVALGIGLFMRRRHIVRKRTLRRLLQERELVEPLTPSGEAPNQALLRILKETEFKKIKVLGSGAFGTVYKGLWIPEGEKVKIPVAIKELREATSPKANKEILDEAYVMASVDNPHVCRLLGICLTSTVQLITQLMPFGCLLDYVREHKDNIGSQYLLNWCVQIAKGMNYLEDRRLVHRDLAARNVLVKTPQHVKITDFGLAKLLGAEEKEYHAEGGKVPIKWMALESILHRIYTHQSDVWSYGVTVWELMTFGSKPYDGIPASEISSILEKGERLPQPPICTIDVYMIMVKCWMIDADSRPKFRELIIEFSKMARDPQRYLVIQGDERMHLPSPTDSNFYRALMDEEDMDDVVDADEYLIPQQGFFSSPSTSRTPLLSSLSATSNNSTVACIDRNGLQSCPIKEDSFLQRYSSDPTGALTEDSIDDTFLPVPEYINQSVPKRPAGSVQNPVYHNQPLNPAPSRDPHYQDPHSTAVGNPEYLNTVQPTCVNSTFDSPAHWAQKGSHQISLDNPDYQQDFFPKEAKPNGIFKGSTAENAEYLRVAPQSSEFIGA

Row | IC50 [µM] | SMILES
1 | 0.402 | COc1cc2ncnc(Nc3cccc(C#CCCO)c3)c2cc1OC
2 | 0.206 | COc1cc2ncnc(Nc3cccc(C#CC(C)(C)O)c3)c2cc1OC
3 | 0.127 | C#Cc1ccc2ncnc(Nc3ccc(F)c(Cl)c3)c2c1
4 | 0.331 | Fc1ccc(Nc2ncnc3ccc(C#Cc4ccccc4)cc23)cc1Cl
5 | 0.0141 | OCC#Cc1ccc2ncnc(Nc3ccc(F)c(Cl)c3)c2c1
6 | 0.186 | OCCC#Cc1ccc2ncnc(Nc3ccc(F)c(Cl)c3)c2c1
7 | 0.114 | OCCCC#Cc1ccc2ncnc(Nc3ccc(F)c(Cl)c3)c2c1
8 | 0.152 | CC(C)(O)C#Cc1ccc2ncnc(Nc3ccc(F)c(Cl)c3)c2c1
9 | 0.0503 | Fc1ccc(Nc2ncnc3ccc(C#CCN4CCOCC4)cc23)cc1Cl
10 | 0.0887 | Fc1ccc(Nc2ncnc3ccc(C#CCN4CCCCC4)cc23)cc1Cl
11 | 0.0288 | C#Cc1cccc(Nc2ncnc3cc(OC)c(OC)cc23)c1
12 | 0.921 | COc1cc2ncnc(Nc3cccc(C#Cc4ccccc4)c3)c2cc1OC
13 | 1.64 | COc1cc2ncnc(Nc3cccc(C#CCO)c3)c2cc1OC
14 | 1.36 | COc1cc2ncnc(Nc3cccc(C#CCCCO)c3)c2cc1OC
